Results from patent US20240108745A1, “BIOACTIVE SUBSTANCE CONJUGATE, PREPARATION METHOD THEREFOR AND USE THEREOF” (MEDILINK THERAPEUTICS (SUZHOU) CO., LTD., priority 2021, published 2024).
Like-named read-outs stand apart in the source and are kept apart here.

Tests used:
A549 = assay: Assay II of bioactive molecules on cell viability in vitro (CCK8); assay type: cell-based; conditions: Homo sapiens, CCK8, 3-4 days
Experimental: (§1) Tumor cells NUCG-4, PC-9, HT29, NCI-H358, KYSE520, A431 and A549 were first cultured; the bioactive molecules or fragments of the present disclosure were co-cultured with tumor cells, and then CCK8 reagent (Dojindo Laboratories (Shanghai), Cat: CK04, Lot: JJ744) was added, and the activity of dehydrogenase in mitochondria was detected by reading (detection wavelength 450 nm) on a microplate reader (manufacturer: Molecular Devices, model: SpectraMax M2), to evaluate the inhibitory effect of bioactive molecules on cell proliferation.
(§2) In vitro cell viability assay method: the tumor cells were digested by conventional methods using trypsin, and cells in tube were collected and counted, and then resuspended in the corresponding assay media (containing 2% FBS), which was added to a 96-well plate at 5000-10000 cells/well. Bioactive molecules were diluted with DMSO, and then 100 μL was added to a 96-well plate, the initial concentration was 10 μM, followed by 3-fold serial dilution (12 concentration gradients). The plate was incubated for 3-4 days at 37° C. under 5% CO2. Then, 20 μL of CCK8 reagent was added to each well, and the reaction was carried out for 2-6 h. The plate was read on a microplate reader (detection wavelength was 450 nm).

HT29 = assay: as above; assay type: cell-based; conditions: Homo sapiens, HT-29; CCK8, 3-4 days
Experimental: as §1, §2

NCI-H358 = assay: as above; assay type: cell-based; conditions: Homo sapiens, CCK8, 3-4 days
Experimental: as §1, §2

KYSE520 = assay: as above; assay type: cell-based; conditions: Homo sapiens, KYSE-520; CCK8, 3-4 days
Experimental: as §1, §2

NUCG-4 = assay: as above; assay type: cell-based; conditions: CCK8, 3-4 days
Experimental: as §1, §2

PC-9 = assay: as above; assay type: cell-based; conditions: Homo sapiens, CCK8, 3-4 days
Experimental: as §1, §2

[1] = human plasma 37° C., ADC 200 μg/mL, A1.9 released from B7H3-ADC-07(DAR8), DXD from B7H3-C1-ADC-21(DAR4)
Experimental: The appropriate concentration of internal standard stock solution was prepared with DMSO, and then acetonitrile or other reagents were used to prepare the appropriate concentration of the internal standard-containing precipitant.
Incubation of sample: the bacteriostatic agent ProClin was added to the plasma of each genera (human, cynomolgus monkey, ICR mouse) and PBS containing 1% BSA, and the final concentration of ProClin was 0.1%, Sterile operations were adopted. 40 μL working solution of test substance and 360 μL of human plasma were mixed to prepare 200 μg/mL of incubation sample. The plate was sealed with a film, and then incubated at 37° C. under 5% CO2 in an incubator, with a shaking speed of 80 times/mm. At 0 h, 4 h, 24 h, 2 d, 3 d, 7 d, 10 d, 14 d, 17 d, 21 d and 28 d, 20 μL of plasma sample was transferred, to which was added 200 μL of precipitant (containing internal standard), and completely mixed to precipitate the proteins.
All samples were subject to protein precipitating, and then centrifuged to collect the supernatant, which was diluted with water, and analyzed by LC-MS/MS.

[2] = Tumor tissue distribution of antibody drug conjugates in HT29 xenografts (A1.9 and ADC in plasma/serum and tumor); assay type: in vivo, BALB/c Nude mice; conditions: BALB/c Nude, mouse, intravenous, 10 mg/kg, HT29 model, read-out: distribution difference of A1.9 in tumors compared with plasma
Experimental: Human colon cancer HT29 cells were purchased from ATCC. HT29 cells were adherently cultured in a […] culture dish, and the culture conditions were 1640 media containing 10% fetal bovine serum, and the cells were cultured at 37° C. in an incubator containing 5% CO2. When cells were in exponential growth phase, cells were digested with trypsin, harvested, counted, and inoculated.
After adapting to the laboratory environment for 2-5 days, BALB/c Nude mice were subcutaneously inoculated with HT29 cells in the right rib, with an inoculation amount of 5×10^6 cells/mouse and an inoculation volume of 0.2 ml (containing 50% Matrigel). The experiment was carried out when the tumor grew to about 200-300 mm^3.
The tumor tissue pieces were sheared into small size on ice, weighed and transferred to a grinding tube. The tissue homogenate was prepared by grinding them with normal saline solution at 1:5 (w/v); tissue homogenate supernatant was prepared by centrifugation for 10 min at 2˜8° C. and 1800× g, and then stored at −15˜−25° C. for use. Before use, it was taken out and left at 15-25° C., naturally warmed to room temperature, and then used.
For the analysis method of A1.9, refer to Example 6.9. […]

## CC[C@@]1(O)C(=O)OCc2c1cc1n(c2=O)Cc2c-1nc1cc3c(cc1c2CCCO)OCO3 [Example A1.9, (S)-7-ethyl-7-hydroxy-14-(3-hydroxypropyl)-10,13-dihydro-11H-[1,3]dioxolo[4,5-g]pyrano[3′,4′:6,7]indolizino[1,2-b]quinolin-8,11(7H)-dione]
A549
  EC50: 65.9 nM
HT29
  EC50: 20.3 nM
NCI-H358
  EC50: 46.2 nM
KYSE520
  EC50: 49.6 nM
NUCG-4
  EC50: 8.73 nM
PC-9
  EC50: 2.06 nM
[1]; day 0
  Release ratio (%): 0.14%
[1]; day 0.17
  Release ratio (%): 0.10%
[1]; day 1
  Release ratio (%): 0.11%
[1]; day 2
  Release ratio (%): 0.16%
[1]; day 3
  Release ratio (%): 0.14%
[1]; day 7
  Release ratio (%): 0.19%
[1]; day 10
  Release ratio (%): 0.24%
[1]; day 14
  Release ratio (%): 0.35%
[1]; day 17
  Release ratio (%): 0.40%
[1]; day 21
  Release ratio (%): 0.46%
[1]; day 28
  Release ratio (%): 0.82%
[2]
  Kp: ≤ 18
